The values that follow come from patent US12653774B2, “Topical compositions and methods for using same” (MARY KAY INC., priority 2022, dated 2026).

In the experiment the target is T1, TRPV-1 (Rattus norvegicus, UniProt O35433).
T1 construct: host or cells: PC 12 cells
Description: Capsaicin induced TRPV-1 mediated calcium flux assay (Fura-2AM) in PC 12 cells. Format: cell-based. Here is the method:
Briefly, Ca^2+ influx was used as a measure of TRPV-1 activity. PC 12 cells (ATCC CRL-1721) were pre-incubated for 4 hours at 37° C. with the respective noted compounds (e.g., plankton extract (test), or capsazepine (positive control)). Following pre-incubation, treatment media was removed and cells were incubated with 100 μl of 0.67 μM Fura-2-acetoxymethyl ester ((Fura-2AM), a high affinity, intracellular calcium indicator that is ratiometric and UV light—excitable) for 1 hour at 37° C. After incubation, cells were treated with 200 μM of capsaicin to induce TRPV-1 mediated Ca^2+ flux response and fluorescence readings were taken every 7 seconds for 10 minutes at 360/460 nm. Data was normalized to controls, plotted as shown, and area under the curve (AUC) values were determined (see Table 2).
Briefly, Ca^2+ influx was used as a measure of TRPV-1 activity. PC 12 cells (ATCC CRL-1721) were pre-incubated for 4 hours at 37° C. with the respective test compounds. Following pre-incubation, treatment media was removed and cells were incubated with 100 μl of 0.67 μM Fura-2AM for 1 hour at 37° C. After incubation, cells were treated with 200 μM of capsaicin to induce TRPV-1 mediated Ca^2+ flux response and fluorescence readings were taken every 7 seconds for 10 minutes at 360/460 nm. Data was normalized to controls, plotted as shown, and AUC values were determined (see Table 2).
Ingredient samples were analyzed for their ability to inhibit calcium flux production in PC 12 cells (ATCC CRL-1721). PC 12 cells were maintained and passaged according to the manufacturer's recommended guidelines. For experiments, 1×10^5 cells/well were plated in 96 well black flat bottom plates. Fura-2-Acetoxymethyl ester (Fura-2AM) calcium detection assay kit (Cayman Chemical #14591) was used to detect calcium in the cells post treatment. Capsaicin (Sigma #M202) was used to trigger a response, and capsazepine (Sigma #C191) was used as a positive control. In brief, Ca2^+ influx was used as a measure of TRPV-1 activity. PC 12 cells (ATCC CRL-1721) were pre-incubated for 4 hours at 37° C. with the respective test compounds. Following pre-incubation, treatment media was removed and cells were incubated with 100 μl of 0.67 μM Fura-2AM for 1 hour at 37° C. After incubation, cells were treated with 200μM of capsaicin to induce TRPV-1 mediated Ca^2+ flux response and fluorescence readings were taken every 7 seconds for 10 minutes at 360/460 nm. Following the test period, buffer was removed and 100 μl diluted MTS reagent was added to each well. Cells were incubated for 15 to 30 minutes at 37° C. 5% CO2, and plates were then read at 490 nm. Cell viability was assessed prior to analyzing for calcium flux.
Fluorescence test data was normalized to controls to generate area under the curve (AUC) values. For each control and test, fluorescence arbitrary units (AU) were normalized to controls for timepoints 0, and 0.5-9 minutes. The normalized data was plotted on an XY graph using GraphPad Prism software to generate a calcium flux curve, with time on the X axis, and normalized AU on the Y axis. The AUC was then calculated for the untreated control, and net AUC was determined for each test and control condition.
(A change in cytosolic calcium serves as a functional read-out for many receptors and channels.)

[1] abbreviates: 400 μM, pre-incubation 4 hours, then 200 μM capsaicin, positive control.

T1 sequence (O35433 whole entry): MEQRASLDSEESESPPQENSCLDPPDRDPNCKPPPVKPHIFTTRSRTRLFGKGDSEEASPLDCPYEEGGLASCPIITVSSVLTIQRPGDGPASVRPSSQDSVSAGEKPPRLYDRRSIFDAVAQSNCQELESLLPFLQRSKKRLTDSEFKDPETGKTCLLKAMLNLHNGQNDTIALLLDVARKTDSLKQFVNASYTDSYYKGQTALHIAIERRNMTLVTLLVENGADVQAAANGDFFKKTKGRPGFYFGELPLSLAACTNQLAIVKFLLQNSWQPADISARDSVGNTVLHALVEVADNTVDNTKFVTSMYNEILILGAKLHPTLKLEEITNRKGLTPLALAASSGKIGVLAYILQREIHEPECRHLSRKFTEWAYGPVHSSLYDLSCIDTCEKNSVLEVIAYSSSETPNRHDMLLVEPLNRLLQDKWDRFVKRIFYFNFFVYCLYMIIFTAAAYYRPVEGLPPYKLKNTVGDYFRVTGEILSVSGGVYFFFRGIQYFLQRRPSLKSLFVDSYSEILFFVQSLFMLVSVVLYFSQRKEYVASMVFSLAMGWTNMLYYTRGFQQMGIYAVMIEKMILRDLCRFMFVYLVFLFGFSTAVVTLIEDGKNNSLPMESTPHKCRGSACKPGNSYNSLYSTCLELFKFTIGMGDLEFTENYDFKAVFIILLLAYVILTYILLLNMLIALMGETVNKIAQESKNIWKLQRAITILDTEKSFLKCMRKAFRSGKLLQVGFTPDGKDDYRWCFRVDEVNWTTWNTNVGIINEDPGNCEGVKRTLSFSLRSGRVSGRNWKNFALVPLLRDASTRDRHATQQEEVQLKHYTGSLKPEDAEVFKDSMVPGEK

Take `Oc1cc2c(cc1O)CN(C(=S)NCCc1ccc(Cl)cc1)CCC2` [Capsazepine, capsazepine]: under setting [1], the AUC turned out to be 8.742 and the “Delta compared to untreated” value is recorded as −0.267. Further, under “400 μM, the positive control itself”, the “Percentage activity compared to positive control” value is “NA (0) %”.

Take `COc1cc(CNC(=O)CCCC/C=C/C(C)C)ccc1O` [Capsaicin]: where the note is “200 μM, net AUC vs untreated baseline 9.009, negative control”, the “Delta compared to untreated” value was 0.944. Also, where the note is “200 μM, normalized Ca2+ flux curve, PC 12 cells, negative control”, the AUC is recorded as 9.953. In addition, the “Percentage activity compared to positive control” value (200 μM, relative to capsazepine 400 μM, negative control) is −453.56%.
